Test results reported in article PMC9884089 (Journal of Medicinal Chemistry, 2023).

Columns and labels:
Human PARP6 = target: T1, Human PARP6 (Homo sapiens, UniProt Q2NL67); experiment: PARP6 inhibition assay (400 nM PARP6, 500 nM NAD+, 18 h); assay type: biochemical; settings: ≫ no inhibition at the concentration; > less than 50% inhibition
T1 construct: Human PARP6 (Uniprot #Q2NL67-1) was cloned into a modified pFASTBac1 vector; 6× His-MBP with TEV protease site (N, cleaved yes); made in house; host or cells: Sf21 insect cells (baculovirus)
T1 sequence (Q2NL67 whole entry): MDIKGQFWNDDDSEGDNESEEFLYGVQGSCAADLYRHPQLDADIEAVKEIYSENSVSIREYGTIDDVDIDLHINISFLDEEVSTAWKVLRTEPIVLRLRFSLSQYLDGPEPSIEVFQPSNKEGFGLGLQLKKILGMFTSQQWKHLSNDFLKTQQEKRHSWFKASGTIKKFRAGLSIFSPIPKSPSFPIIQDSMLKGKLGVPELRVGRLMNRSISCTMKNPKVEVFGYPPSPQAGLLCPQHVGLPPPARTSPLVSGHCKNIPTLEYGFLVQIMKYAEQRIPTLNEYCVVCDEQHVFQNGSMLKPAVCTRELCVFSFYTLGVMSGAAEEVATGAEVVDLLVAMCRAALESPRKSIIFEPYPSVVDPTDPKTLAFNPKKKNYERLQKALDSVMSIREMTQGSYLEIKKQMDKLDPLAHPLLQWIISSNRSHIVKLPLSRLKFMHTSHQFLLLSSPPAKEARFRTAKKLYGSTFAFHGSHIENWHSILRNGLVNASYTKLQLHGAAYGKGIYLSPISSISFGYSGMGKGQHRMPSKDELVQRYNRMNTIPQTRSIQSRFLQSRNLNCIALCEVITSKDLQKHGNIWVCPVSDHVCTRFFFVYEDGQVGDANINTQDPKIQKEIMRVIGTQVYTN
Experimental: (§1) Inhibition experiments were performed using a homogenous assay measuring NAD+ consumption.[80]−[82] Reactions were carried out in quadruplicate, and IC50 curves were fitted using sigmoidal dose response curve (four variables) in GraphPad Prism version 8.02. […] Assay conditions for PARP2, TNKS2, PARP10, and PARP15 (Tables 1–3) were recently reported.[44] The conditions for the proximity-enhanced mono-ART assays (Table 4) were also reported recently.[47] PARP6 (400 nM) inhibition was measured using the standard buffer (50 mM sodium phosphate pH 7.0) for the enhanced activity assay using 500 nM NAD^+ and 18 h incubation in r.t..

PARP16 = target: T2, PARP16 (Homo sapiens, UniProt Q8N5Y8); experiment: Proximity-enhanced mono-ART activity assay, PARP16; assay type: biochemical; settings: > less than 50% inhibition
T2 construct: dockerin domain of Hungateiclostridium thermocellum Cel48s (C); made in house; host or cells: Escherichia coli
T2 sequence (Q8N5Y8 1-322): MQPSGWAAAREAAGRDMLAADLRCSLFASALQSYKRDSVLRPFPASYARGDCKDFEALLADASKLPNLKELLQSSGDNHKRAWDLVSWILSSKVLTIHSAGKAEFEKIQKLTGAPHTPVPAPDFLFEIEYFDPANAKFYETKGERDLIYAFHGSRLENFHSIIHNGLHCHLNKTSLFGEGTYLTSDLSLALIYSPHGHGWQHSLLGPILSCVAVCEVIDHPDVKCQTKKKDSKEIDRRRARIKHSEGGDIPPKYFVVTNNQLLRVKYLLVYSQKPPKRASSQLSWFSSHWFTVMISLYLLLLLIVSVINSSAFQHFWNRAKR
Experimental: We therefore had to improve the assay method and developed a homogeneous proximity enhanced assay for mono-ARTs.[47]
The proteins used in Tables 1–3 were produced as described earlier. Dockerin constructs to allow enhanced activity assays for mono-ARTs (Table 4) were produced in Escherichia coli with an N-terminal maltose binding protein (MBP) and a C-terminal dockerin domain from Hungateiclostridium thermocellum Cel48s as described recently.[47]
as §1

[1] = system: HeLa Flp-In T-REx-PARP10 cells; experiment: PARP10 rescue assay (colony formation, Dox-induced PARP10 overexpression); assay type: cell-based, human; settings: for EC50: Homo sapiens, HeLa, read-out: PARP10 rescue EC50; for Rescue of cells from PARP10-induced cell death: at 1 μM, colony formation
Experimental: HeLa Flp-In T-REx-PARP10 and -PARP10-G888W cells were grown in DMEM medium supplemented with 10% heat-inactivated fetal calf serum at 37 °C in 5% CO2.[92] For colony formation assays, 500 HeLa cells were seeded in 6-well culture plates. Once the cells adhered, protein expression was induced by adding 500 ng/mL Dox. […] The number of colonies was assessed using ImageJ. EC50 curves were fitted using three variables in GraphPad Prism version 8.02.

[2] = PAMPA, gastrointestinal tract (GI) permeability; assay type: in vitro ADME; settings: phosphatidylcholine; for Papp at 5 h, 500 μM: pH 7.4, 5 h
Experimental: Each “donor solution” was prepared from a solution of the appropriate compound (DMSO, 1 mM) diluted with phosphate buffer (pH 7.4, 0.025 M) up to a final concentration of 500 μM. […] Donor solution (150 μL) was added to each well of the filter plate and to each well of the acceptor plate was added 300 μL of solution (50% DMSO in phosphate buffer). The sandwich plate was assembled and incubated for 5 h at r.t. After the incubation time, the plates were separated, and the samples were taken from both the donor and acceptor wells, and the amount of compound was measured by UV/LC–MS. All compounds were tested in three independent experiments. […] Drug concentration is estimated by using the peak area integration. Membrane retentions (%) were calculated according to the following equation [drawing 2] where r is the ratio between drug concentration in the acceptor and equilibrium concentration and D, A, and Eq represent drug concentration in the donor, acceptor, and equilibrium solution, respectively.

[3] = Metabolic stability in HLM; settings: 37 °C, 1 h, NADPH regenerating system
Experimental: Each compound in DMSO solution was incubated at 37 °C for 1 h in phosphate buffer (25 mM pH 7.4), human liver microsomal protein (0.2 mg/mL), and in the presence of an NADPH regenerating system (NADPH 0.2 mM, […] 1 mM, D-glucose-6-phosphate 4 mM, 4 unit/mL glucose-6-phosphate dehydrogenase) in 48 mM MgCl2 at a final volume of 500 μL. The reaction was stopped by cooling in ice and quenched by adding 1.0 mL of acetonitrile. The reaction mixtures were then centrifuged (4000 rpm for 10 min), and the supernatant was taken, dried under nitrogen flow, and suspended in 100 μL of methanol. The parent drug and metabolites were subsequently determined by UV/LC–MS. The percentage of not metabolized compound was calculated by comparison with reference solutions. For each compound, the determination was performed in three independent experiments.

Stability in MeOH = assay type: physicochemical; settings: 500 μM
Experimental: For the stability measurements in polar solvents, each compound was dissolved at room temperature in MeOH or PBS (0.025 M, pH 7.4) up to a final concentration of 500 μM.

Cc1ccc2c(c1)sc1nnc(N)n12 [Compound 21, 7-Methyl[1,2,4]triazolo[3,4-b][1,3]benzothiazol-3-amine]
IC50 (Human PARP6): > 10 µM | IC50 (PARP16): 5.2 µM | EC50 [1]: 0.5 µM | Rescue of cells from PARP10-induced cell death [1]: efficiently rescued cells from PARP10-induced cell death | GI RM % (retention membrane percentage) [2]: 1.8% | Papp at 5 h, 500 μM [2]: 0.281 ×10⁻⁶ cm/s | metabolic stablity % (unchanged compound) [3]: 99.14% | stab. in MeOH (Stability in MeOH): >24 h

COc1ccc(OC)c2c1sc1nnc(N)n12 [Compound 27, 5,8-Dimethoxy[1,2,4]triazolo[3,4-b][1,3]benzothiazol-3-amine]
IC50 (Human PARP6): 7.7 µM | IC50 (PARP16): 3.4 µM | EC50 [1]: 0.15 µM | Rescue of cells from PARP10-induced cell death [1]: efficiently rescued cells from PARP10-induced cell death | GI RM % (retention membrane percentage) [2]: 1.3% | Papp at 5 h, 500 μM [2]: 0.144 ×10⁻⁶ cm/s | metabolic stablity % (unchanged compound) [3]: 99.11% | stab. in MeOH (Stability in MeOH): >24 h
